Measured values: PubChem BioAssay (NCI)
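How tested: cells in 96-well plates exposed to compound for 48 hours at five concentrations. Definition used: TGI = concentration required for complete inhibition of growth.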

What was measured:
Test in all cases: NCI tumour cell line growth inhibition, 48 h
[1] = test system: 786-0 renal
[2] = test system: A498 renal
[3] = test system: A549 NSCLC
[4] = test system: ACHN renal
[5] = test system: BT-549 breast
[6] = test system: CAKI-1 renal
[7] = test system: CCRF-CEM leukemia
[8] = test system: COLO 205 colon
[9] = test system: DU-145 prostate
[10] = test system: EKVX NSCLC
[11] = test system: HCC-2998 colon
[12] = test system: HCT-116 colon
[13] = test system: HCT-15 colon
[14] = test system: HL-60(TB) leukemia
[15] = test system: HOP-92 NSCLC
[16] = test system: HS 578T breast
[17] = test system: HT29 colon
[18] = test system: IGROV1 ovarian
[19] = test system: K-562 leukemia
[20] = test system: KM12 colon
[21] = test system: LOX IMVI melanoma
[22] = test system: M14 melanoma
[23] = test system: MALME-3M melanoma
[24] = test system: MCF7 breast
[25] = test system: MDA-MB-231 breast
[26] = test system: MDA-MB-435
[27] = test system: MOLT-4 leukemia
[28] = test system: NCI-H226 lung
[29] = test system: NCI-H23 lung
[30] = test system: NCI-H460 lung
[31] = test system: NCI-H522 lung
[32] = test system: NCI/ADR-RES ovarian
[33] = test system: OVCAR-3 ovarian
[34] = test system: OVCAR-4 ovarian
[35] = test system: OVCAR-5 ovarian
[36] = test system: OVCAR-8 ovarian
[37] = test system: PC-3 prostate
[38] = test system: RPMI-8226 leukemia
[39] = test system: SF-268 CNS
[40] = test system: SF-295 CNS
[41] = test system: SF-539 CNS
[42] = test system: SK-MEL-2 melanoma
[43] = test system: SK-MEL-28 melanoma
[44] = test system: SK-MEL-5 melanoma
[45] = test system: SK-OV-3 ovarian
[46] = test system: SN12C renal
[47] = test system: SNB-19 CNS
[48] = test system: SNB-75 CNS
[49] = test system: SW-620 colon
[50] = test system: T-47D breast
[51] = test system: TK-10 renal
[52] = test system: U251 CNS
[53] = test system: UACC-257 melanoma
[54] = test system: UACC-62 melanoma
[55] = test system: UO-31 renal
[56] = test system: HOP-62 NSCLC
[57] = test system: RXF 393 renal
[58] = test system: SR leukemia

Compound: CC1=C(C(=O)N(C)c2ccc(Cl)c(C(=O)OC(C)C)c2)SCCO1
- TGI [1]: > 100 µM
- TGI [2]: > 100 µM
- TGI [3]: > 100 µM
- TGI [4]: > 100 µM
- TGI [5]: > 100 µM
- TGI [6]: > 100 µM
- TGI [7]: > 100 µM
- TGI [8]: > 100 µM
- TGI [9]: > 100 µM
- TGI [10]: > 100 µM
- TGI [11]: > 100 µM
- TGI [12]: > 100 µM
- TGI [13]: > 100 µM
- TGI [14]: > 100 µM
- TGI [15]: > 100 µM
- TGI [16]: > 100 µM
- TGI [17]: > 100 µM
- TGI [18]: > 100 µM
- TGI [19]: > 100 µM
- TGI [20]: > 100 µM
- TGI [21]: > 100 µM
- TGI [22]: > 100 µM
- TGI [23]: > 100 µM
- TGI [24]: > 100 µM
- TGI [25]: > 100 µM
- TGI [26]: > 100 µM
- TGI [27]: > 100 µM
- TGI [28]: > 100 µM
- TGI [29]: > 100 µM
- TGI [30]: > 100 µM
- TGI [31]: > 100 µM
- TGI [32]: > 100 µM
- TGI [33]: > 100 µM
- TGI [34]: > 100 µM
- TGI [35]: > 100 µM
- TGI [36]: > 100 µM
- TGI [37]: > 100 µM
- TGI [38]: > 100 µM
- TGI [39]: > 100 µM
- TGI [40]: > 100 µM
- TGI [41]: > 100 µM
- TGI [42]: > 100 µM
- TGI [43]: > 100 µM
- TGI [44]: > 100 µM
- TGI [45]: > 100 µM
- TGI [46]: > 100 µM
- TGI [47]: > 100 µM
- TGI [48]: 90.8 µM
- TGI [49]: > 100 µM
- TGI [50]: > 100 µM
- TGI [51]: > 100 µM
- TGI [52]: > 100 µM
- TGI [53]: > 100 µM
- TGI [54]: > 100 µM
- TGI [55]: > 100 µM

Compound: c1ccc2c(c1)OC(N1CCCC1)c1cnc(N3CCOCC3)nc1-2 (configuration not stated)
- TGI [1]: > 100 µM
- TGI [2]: 39.7 µM
- TGI [3]: > 100 µM
- TGI [4]: > 100 µM
- TGI [5]: 72.8 µM
- TGI [6]: > 100 µM
- TGI [7]: > 100 µM
- TGI [8]: > 100 µM
- TGI [9]: > 100 µM
- TGI [10]: 79.4 µM
- TGI [12]: > 100 µM
- TGI [13]: > 100 µM
- TGI [14]: > 100 µM
- TGI [56]: > 100 µM
- TGI [15]: 55.6 µM
- TGI [16]: > 100 µM
- TGI [17]: > 100 µM
- TGI [19]: > 100 µM
- TGI [20]: > 100 µM
- TGI [21]: > 100 µM
- TGI [22]: > 100 µM
- TGI [23]: > 100 µM
- TGI [24]: 38.2 µM
- TGI [25]: > 100 µM
- TGI [26]: > 100 µM
- TGI [27]: > 100 µM
- TGI [28]: > 100 µM
- TGI [29]: 30.9 µM
- TGI [30]: > 100 µM
- TGI [33]: > 100 µM
- TGI [34]: > 100 µM
- TGI [35]: 79.1 µM
- TGI [36]: > 100 µM
- TGI [37]: > 100 µM
- TGI [38]: 74.7 µM
- TGI [57]: 60.4 µM
- TGI [39]: > 100 µM
- TGI [40]: > 100 µM
- TGI [41]: > 100 µM
- TGI [43]: > 100 µM
- TGI [45]: > 100 µM
- TGI [46]: > 100 µM
- TGI [47]: > 100 µM
- TGI [48]: 54.4 µM
- TGI [58]: > 100 µM
- TGI [49]: > 100 µM
- TGI [50]: 45.2 µM
- TGI [51]: > 100 µM
- TGI [52]: > 100 µM
- TGI [53]: 74.2 µM
- TGI [54]: > 100 µM
- TGI [55]: 47.2 µM
